From US20250108023A1, “Products for Masking Bitterness” (The Third People's Hospital of Henan Province, priority 2023, published 2025)

Target: T1, sodium ion channel of Trpm5 bitter receptor (Mus musculus, UniProt Q9JJH7)
T1 construct: Put the removed tongue in a 2 ml EP tube, add 1-1.5 ml of 0.25% trypsin solution; from tissue; host or cells: cells dissociated with trypsin from mouse tongue
T1 sequence (Q9JJH7 1-1158): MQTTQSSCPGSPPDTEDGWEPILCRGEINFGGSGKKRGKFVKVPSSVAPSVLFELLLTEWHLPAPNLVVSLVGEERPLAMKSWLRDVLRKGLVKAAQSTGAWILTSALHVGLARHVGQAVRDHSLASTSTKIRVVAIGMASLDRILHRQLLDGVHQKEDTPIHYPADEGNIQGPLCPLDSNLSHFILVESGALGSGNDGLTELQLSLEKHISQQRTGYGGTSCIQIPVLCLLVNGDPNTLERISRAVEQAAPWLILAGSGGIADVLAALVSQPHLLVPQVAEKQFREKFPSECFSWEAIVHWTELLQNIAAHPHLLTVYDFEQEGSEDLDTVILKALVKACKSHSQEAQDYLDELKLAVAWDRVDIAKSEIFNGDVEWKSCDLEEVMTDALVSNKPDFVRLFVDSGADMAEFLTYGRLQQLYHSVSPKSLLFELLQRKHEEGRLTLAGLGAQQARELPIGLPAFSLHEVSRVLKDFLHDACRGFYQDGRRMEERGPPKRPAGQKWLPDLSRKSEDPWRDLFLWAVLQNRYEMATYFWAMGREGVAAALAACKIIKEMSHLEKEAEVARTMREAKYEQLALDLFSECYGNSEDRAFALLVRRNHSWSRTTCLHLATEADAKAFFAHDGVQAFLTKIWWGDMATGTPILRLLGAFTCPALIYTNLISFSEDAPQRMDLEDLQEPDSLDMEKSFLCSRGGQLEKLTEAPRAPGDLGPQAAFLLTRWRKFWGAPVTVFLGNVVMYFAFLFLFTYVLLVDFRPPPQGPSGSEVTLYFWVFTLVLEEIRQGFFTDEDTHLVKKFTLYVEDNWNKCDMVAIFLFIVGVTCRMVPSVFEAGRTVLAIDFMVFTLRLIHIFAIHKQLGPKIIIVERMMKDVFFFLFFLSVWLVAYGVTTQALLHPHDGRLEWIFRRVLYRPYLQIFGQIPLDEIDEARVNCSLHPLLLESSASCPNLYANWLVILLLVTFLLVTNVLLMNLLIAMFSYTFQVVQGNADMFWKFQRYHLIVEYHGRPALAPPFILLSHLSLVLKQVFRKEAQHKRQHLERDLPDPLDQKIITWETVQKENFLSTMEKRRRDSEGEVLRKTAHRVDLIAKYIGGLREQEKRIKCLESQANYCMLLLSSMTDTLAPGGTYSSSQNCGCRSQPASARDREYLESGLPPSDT
Test: Immunofluorescence experiment of sodium ion channels in mouse tongue cells stimulated with bitter agent
Type: cell-based, mice
Details: for blocking effect on the sodium ion channel (result analysis in words): judged from change of sodium ion fluorescence after bitter drug
Method: The mouse was killed by dislocation, and the tongue was removed (minimizing tongue bleeding), disinfected with alcohol for 2 minutes (adding sodium citrate for anticoagulation), and washed with D-Hanks solution or rinsed with 10 ml of saline solution drawn by a syringe.
Take out the centrifuge tube from the constant temperature incubator, shake for 2 minutes, blow the undigested tongue several times with the gun tip, take out the tongue, cover it with the EP tube cap, put it in a centrifuge, centrifuge at 3000 rpm for 3 minutes, discard the supernatant, add cell culture medium (containing 10% inactivated serum), blow and disperse the cells, and place it in a 37° C. constant temperature incubator for 30 min to allow the cells to recover.
(1) Take out the prepared ENG-2 AM storage solution and warm it to room temperature for use, keeping it away from light. The concentration of the pre-prepared stock solution is 2 mM and it is stored at −18° C. for future use.
(2) Dilute the ENG-2 AM+DMSO stock solution to a […] working solution using serum-free culture medium.
(3) Load the probe in a serum-free culture medium containing an appropriate concentration of AM probe.
Take out the cells from the incubator, centrifuge, and discard the culture medium. Wash the cells once with D-Hanks solution, centrifuge, and discard the culture medium. Add 1 ml of culture medium again, then add 300 ul of sodium ion probe dilution solution, blow and disperse the cells, and incubate the cells at room temperature or 37° C. for 1 hour.
At the end of incubation, centrifuge at 100 rpm for 2 minutes, discard the supernatant, add 500 ul of cell culture medium without AM probe, blow and disperse the cells, and incubate for 20-60 min to ensure that the cells completely deesterify the AM group.
(4) Take 10 ul of incubation solution and drop it into the center of the cell counting plate, cover it with a slide, and observe it under a fluorescence microscope.
(5) Use a low-power microscope to find the cells, open the fluorescence path, detect the fluorescence signal with a fluorescence microscope, change to a high-power microscope, find the appropriate observation cells, observe and take pictures to record the initial signal.
(2) Experimental drugs: Add 5 ul of the tested drug to one side of the cover glass on the cell counting plate, use absorbent paper to absorb water on the opposite side, let the solution soak the cells, and then use a fluorescence microscope to observe and take 3-5 photos, one every 1-2 minutes; then add 5 ul of the standard bitter drug to one side of the cover glass on the cell counting plate, use absorbent paper to absorb water on the opposite side, let the solution soak the cells, and then use a fluorescence microscope to observe and take 3-5 photos, one every 1-2 minutes.
(5) Data analysis: Use Image J-Fiji software to analyze the images, compare the average values of the fluorescence pixels, remove the base number and compare them in the table, draw FIGS. 4-6, and use SPSS18.0 to perform chi-square tests to compare the differences between the data groups.

[1] = Bitterant 60 s (2% metronidazole solution)
[2] = Bitterant 120 s (2% metronidazole solution)
[3] = Bitterant 180 s (2% metronidazole solution)
[4] = Bitterant 240 s (2% metronidazole solution)
[5] = Initial (before addition of drug), sodium ion dye ENG-2 AM

SMILES	average value of fluorescence brightness (Addition of drugs)	average value of fluorescence brightness, base number removed (Addition of drugs)	average value of fluorescence brightness [1]	average value of fluorescence brightness [2]	average value of fluorescence brightness, base number removed [2]	average value of fluorescence brightness [3]	average value of fluorescence brightness, base number removed [3]	average value of fluorescence brightness [4]	average value of fluorescence brightness, base number removed [4]	average value of fluorescence brightness, base number removed (Initial)	average value of fluorescence brightness [5]	average value of fluorescence brightness, base number removed [1]	blocking effect on the sodium ion channel (result analysis in words)
C=CC(C)(O)CCC=C(C)C (stereo not shown) [Linalool, linalool]	27.648	−0.135	27.649	27.44	−0.343	27.426	−0.357	26.46	−1.323	0	27.783		can block the sodium ion channel of Trpm5 bitter receptor
CC(C)[C@@H]1CC[C@@H](C)C[C@H]1OC(=O)CCC(=O)O [Menthyl succinate]	28.92	0.041	28.747	28.8	−0.079	28.851	−0.028			0	28.879	−0.132	can block the sodium ion channel of Trpm5 bitter receptor
O=CC=Cc1ccccc1 [Cinnamaldehyde, 3-phenyl-2-propenal]	31.017	−0.328	30.893	30.691	−0.654	30.597	−0.748			0	31.345	−0.452	can block the sodium ion channel of Trpm5 bitter receptor
COc1ccc(CCN(C)CCCC(C#N)(c2ccc(OC)c(OC)c2)C(C)C)cc1OC (stereo not shown) [Verapamil, 5-((3,4-dimethoxyphenylethyl)methylamino)-2-(3,4-dimethoxyphenyl)-2-isopropylvaleronitrile, reference compound]	27.77	−0.085	28.089	27.651	−0.204	27.574	−0.281			0	27.855	0.234	have poor effects and do not have bitterness masking effect
CC(C)=CCCC(C)=CC=O [Citral, citral]	29.943	−0.335	29.766	29.742	−0.536	29.647	−0.631			0	30.278	−0.512	can block the sodium ion channel of Trpm5 bitter receptor
CC1CCC(C(C)C)C(=O)C1 (stereo not shown) [Menthone, 5-methyl-2-isopropylcyclohexanone]	25.48	−0.076	25.415	25.447	−0.109	25.4	−0.156			0	25.556	−0.141	can block the sodium ion channel of Trpm5 bitter receptor

Continued, in another order:

average value of fluorescence brightness (Addition of drugs)	average value of fluorescence brightness, base number removed (Addition of drugs)	average value of fluorescence brightness [1]	average value of fluorescence brightness [2]	average value of fluorescence brightness, base number removed [2]	average value of fluorescence brightness [3]	average value of fluorescence brightness, base number removed [3]	average value of fluorescence brightness [4]	average value of fluorescence brightness, base number removed [4]	average value of fluorescence brightness, base number removed (Initial)	average value of fluorescence brightness [5]	average value of fluorescence brightness, base number removed [1]	SMILES	blocking effect on the sodium ion channel (result analysis in words)
28.103	−0.125	27.797	26.368	−1.86	26.329	−1.899			0	28.228	−0.431	C=CCc1ccc(OC(C)=O)c(OC)c1 [Eugenol acetate]	can block the sodium ion channel of Trpm5 bitter receptor
25.244	−0.093	25.15	25.137	−0.2	25.08	−0.257			0	25.337	−0.187	CCCCC[C@H](O)CC(=O)CCc1ccc(O)c(OC)c1 [Gingerol, 6-gingerol]	can block the sodium ion channel of Trpm5 bitter receptor
26.795	−0.107	26.689	26.699	−0.203	26.725	−0.177			0	26.902	−0.213	COc1cc(C(=O)O)ccc1O [Vanillic acid, 3-methoxy-4-hydroxybenzoic acid]	have poor effects and do not have bitterness masking effect
